From patent US12240840B2, “Amide-substituted heterocyclic compounds for the treatment of conditions related to the modulation of IL-12, IL-23 and/or IFN-alpha” (BRISTOL-MYERS SQUIBB COMPANY, priority 2018, dated 2025)

Test system: IFNα-induced pSTAT5 (pY694) in CD3 positive cells of human whole blood
Assay: IFNα-Induced STAT Phosphorylation in Human Whole Blood
Assay type: cell-based
Settings: Homo sapiens, 1 h compound incubation, 1000 U/mL recombinant human IFNα A/D for 15 min, pSTAT5 in CD3 positive population, read-out: Human WB IFNα-Induced Stat Phosph. (IC50)
Description: IFNα-Induced STAT Phosphorylation in Human Whole Blood
After an hour long incubation with compound, human whole blood (drawn with either EDTA or ACD-A as anti-coagulant) was stimulated with 1000 U/mL recombinant human IFNα A/D (R&D Systems 11200-2) for 15 min. The stimulation was stopped by adding Fix/Lyse buffer (BD 558049). Cells were stained with a CD3 FITC antibody (BD 555916), washed, and permeabilized on ice using Perm III buffer (BD 558050). Cells were then stained with an Alexa-Fluor 647 pSTAT5 (pY694) antibody (BD 612599) for 30 min prior to analysis on the FACS Canto II. The amount of pSTAT5 expression was quantitated by median fluorescence intensity after gating on the CD3 positive population.
IFNα-Induced STAT Phosphorylation in Human Whole Blood Inhibition Data ND—no data available

## COc1c(Nc2cc(NC(=O)C3CC3)nnc2C(N)=O)cccc1-c1noc(CS(C)(=O)=O)n1 [Example 64]
  IC50: 110 nM

## [2H]C([2H])([2H])NC(=O)c1nnc(NC(=O)C2CC2)cc1Nc1cccc(-c2noc(CN(C)S(C)(=O)=O)n2)c1OC [Example 65]
  IC50: 16 nM

## COc1c(Nc2cc(NC(=O)C3CC3)nnc2C(N)=O)cccc1-c1noc([C@@H]2[C@H](O)CCN2S(C)(=O)=O)n1 [Example 66]
  IC50: 30 nM

## COCc1nc(-c2cccc(Nc3cc(NC(=O)C4CC4)nnc3C(N)=O)c2OC)no1 [Example 67]
  IC50: 60 nM

## COc1c(Nc2cc(NC(=O)C3CC3)nnc2C(N)=O)cccc1-c1noc(CN2CCCS2(=O)=O)n1 [Example 68]
  IC50: 23 nM

## [2H]C([2H])([2H])NC(=O)c1nnc(NC(=O)C2CC2)cc1Nc1cccc(-c2noc(CO)n2)c1OC [Example 69]
  IC50: 30 nM

## COc1c(Nc2cc(NC(=O)C3CC3)nnc2C(N)=O)cccc1-c1noc(CO)n1 [Example 70]
  IC50: 14 nM

## COc1c(Nc2cc(NC(=O)C3CC3)nnc2C(N)=O)cccc1-c1noc(CCS(C)(=O)=O)n1 [Example 71]
  IC50: 25 nM

## [2H]C([2H])([2H])NC(=O)c1nnc(NC(=O)C2CC2)cc1Nc1cccc(-c2noc(COC)n2)c1OC [Example 72]
  IC50: 80 nM

## [2H]C([2H])([2H])NC(=O)c1nnc(NC(=O)C2CC2)cc1Nc1cccc(-c2noc(C(C)(C)O)n2)c1OC [Example 73]
  IC50: 280 nM

## [2H]C([2H])([2H])NC(=O)c1nnc(NC(=O)C2CC2)cc1Nc1cccc(-c2noc(C3(O)CC3)n2)c1OC [Example 74]
  IC50: 170 nM

## [2H]C([2H])([2H])NC(=O)c1nnc(NC(=O)C2CC2)cc1Nc1cccc(-c2noc([C@@H]3C[C@@H](O)CN3S(C)(=O)=O)n2)c1OC [Example 75]
  IC50: 30 nM

## [2H]C([2H])([2H])NC(=O)c1nnc(NC(=O)C2CC2)cc1Nc1cccc(-c2noc(CN3CCCS3(=O)=O)n2)c1OC [Example 76]
  IC50: 30 nM

## [2H]C([2H])([2H])NC(=O)c1nnc(NC(=O)C2CC2)cc1Nc1cccc(-c2noc(CN3CCOC3=O)n2)c1OC [Example 77]
  IC50: 40 nM

## [2H]C([2H])([2H])NC(=O)c1nnc(NC(=O)C2CC2)cc1Nc1cccc(-c2noc(CCS(C)(=O)=O)n2)c1OC [Example 78]
  IC50: 70 nM

## [2H]C([2H])([2H])NC(=O)c1nnc(NC(=O)C2CC2)cc1Nc1cccc(-c2noc(CN3CCCC3=O)n2)c1OC [Example 79]
  IC50: 160 nM

## [2H]C([2H])([2H])NC(=O)c1nnc(NC(=O)C2CC2)cc1Nc1cccc(-c2noc(CN3CC(O)C3)n2)c1OC [Example 80]
  IC50: 110 nM

## [2H]C([2H])([2H])NC(=O)c1nnc(NC(=O)C2CC2)cc1Nc1cccc(-c2noc(C3CCCO3)n2)c1OC (centres unmarked) [Example 81]
  IC50: 180 nM

## [2H]C([2H])([2H])NC(=O)c1nnc(NC(=O)C2CC2)cc1Nc1cccc(-c2noc(CN3CCC(O)C3)n2)c1OC (centres unmarked) [Example 82]
  IC50: 70 nM

## [2H]C([2H])([2H])NC(=O)c1nnc(NC(=O)C2CC2)cc1Nc1cccc(-c2noc(CN3CCC(O)CC3)n2)c1OC [Example 83]
  IC50: 110 nM

## [2H]C([2H])([2H])NC(=O)c1nnc(NC(=O)C2CC2)cc1Nc1cccc(-c2noc([C@H](C)O)n2)c1OC [Example 84]
  IC50: 130 nM

## [2H]C([2H])([2H])NC(=O)c1nnc(NC(=O)C2CC2)cc1Nc1cccc(-c2noc([C@@H](C)O)n2)c1OC [Example 85]
  IC50: 240 nM

## [2H]C([2H])([2H])NC(=O)c1cnc(NC(=O)CC2CC2)cc1Nc1cccc(-c2noc(COC)n2)c1OC [Example 86]
  IC50: 300 nM

## [2H]C([2H])([2H])NC(=O)c1cnc(NC(=O)CC)cc1Nc1cccc(-c2noc(COCC)n2)c1OC [Example 87]
  IC50: 460 nM

## [2H]C([2H])([2H])NC(=O)c1cnc(NC(=O)CC)cc1Nc1cccc(-c2noc(COC)n2)c1OC [Example 88]
  IC50: 230 nM

## [2H]C([2H])([2H])NC(=O)c1cnc(NC(=O)C2CC2)cc1Nc1cccc(-c2noc(COC(C)C)n2)c1OC [Example 89]
  IC50: 30 nM

## [2H]C([2H])([2H])NC(=O)c1cnc(NC(=O)C2CC2)cc1Nc1cccc(-c2noc(CCOC)n2)c1OC [Example 90]
  IC50: 60 nM

## [2H]C([2H])([2H])NC(=O)c1cnc(NC(=O)C2CC2)cc1Nc1cccc(-c2noc(COCC)n2)c1OC [Example 91]
  IC50: 50 nM

## [2H]C([2H])([2H])NC(=O)c1cnc(NC(=O)C2CC2)cc1Nc1cccc(-c2noc(CN3CCN(C(=O)OC)CC3)n2)c1OC [Example 92]
  IC50: 30 nM

## [2H]C([2H])([2H])NC(=O)c1cnc(NC(=O)C2CC2)cc1Nc1cccc(-c2noc(COC)n2)c1OC [Example 93]
  IC50: 50 nM

## [2H]C([2H])([2H])NC(=O)c1cnc(NC(=O)C2CC2)cc1Nc1cccc(-c2noc(CN(C)S(C)(=O)=O)n2)c1OC [Example 94]
  IC50: 11 nM

## [2H]C([2H])([2H])NC(=O)c1cnc(NC(=O)C2CC2)cc1Nc1cccc(-c2noc(CN3CCN(S(C)(=O)=O)CC3)n2)c1OC [Example 95]
  IC50: 21 nM

## [2H]C([2H])([2H])NC(=O)c1cnc(NC(=O)C2CC2)cc1Nc1cccc(-c2noc(CN3CCOCC3)n2)c1OC [Example 96]
  IC50: 15 nM

## [2H]C([2H])([2H])NC(=O)c1cnc(NC(=O)C2CC2)cc1Nc1cccc(-c2noc(CN3CCCS3(=O)=O)n2)c1OC [Example 97]
  IC50: 30 nM

## [2H]C([2H])([2H])NC(=O)c1cnc(NC(=O)C2CC2)cc1Nc1cccc(-c2noc(CO)n2)c1OC [Example 98]
  IC50: 23 nM

## [2H]C([2H])([2H])NC(=O)c1cnc(Nc2cc(C)ccn2)cc1Nc1cccc(-c2noc(COC)n2)c1OC [Example 99]
  IC50: 40 nM

## [2H]C([2H])([2H])NC(=O)c1cnc(Nc2cc(C)ccn2)cc1Nc1cccc(-c2noc(COCC)n2)c1OC [Example 100]
  IC50: 60 nM

## COC(=O)N1CCN(Cc2nc(-c3cccc(Nc4cc(N)nnc4C(N)=O)c3OC)no2)CC1 [Example 105]
  IC50: 1830 nM

## COc1c(Nc2cc(N)nnc2C(N)=O)cccc1-c1noc(CN2CCOCC2)n1 [Example 107]
  IC50: 820 nM

## COc1c(Nc2cc(N)nnc2C(N)=O)cccc1-c1noc(CN2CCN(S(C)(=O)=O)CC2)n1 [Example 109]
  IC50: > 10000 nM

## COc1c(Nc2cc(N)nnc2C(N)=O)cccc1-c1noc(C(=O)NCCC2CCCN2C)n1 (centres unmarked) [Example 115]
  IC50: 3490 nM

## COc1c(Nc2cc(N)nnc2C(N)=O)cccc1-c1noc(C(=O)NC2CCN(C)CC2)n1 [Example 116]
  IC50: 4970 nM

## COc1c(Nc2cc(NC3CC3)nnc2C(N)=O)cccc1-c1noc(CNS(C)(=O)=O)n1 [Example 118]
  IC50: 3800 nM

## COc1c(Nc2cc(NCC3CC3)nnc2C(N)=O)cccc1-c1noc(CNS(C)(=O)=O)n1 [Example 119]
  IC50: > 10000 nM

## [2H]C([2H])([2H])c1c(NC(=O)C2CC2)nnc(C(N)=O)c1Nc1cccc(-c2nc(CN3CCN(C(C)=O)CC3)no2)c1OC [Example 120, 4-((3-(3-((4-acetylpiperazin-1-yl)methyl)-1,2,4-oxadiazol-5-yl)-2-methoxyphenyl)amino)-6-(cyclopropanecarboxamido)-trideuteromethylpyridazine-3-carboxamide]
  IC50: 150 nM

## [2H]C([2H])([2H])NC(=O)c1nnc(NC(=O)C2CC2)cc1Nc1cccc(-c2nc(CC)no2)c1OC [Example 121]
  IC50: > 10000 nM

## [2H]C([2H])([2H])NC(=O)c1nnc(NC(=O)C2CC2)cc1Nc1cccc(-c2nc(CC(C)C)no2)c1OC [Example 122]
  IC50: > 10000 nM

## [2H]C([2H])([2H])NC(=O)c1nnc(NC(=O)C2CC2)cc1Nc1cccc(-c2nc(-c3ccccc3)no2)c1OC [Example 123]
  IC50: > 10000 nM

## [2H]C([2H])([2H])NC(=O)c1nnc(NC(=O)C2CC2)cc1Nc1cccc(-c2nc(CN3CCOCC3)no2)c1OC [Example 124]
  IC50: 210 nM

## [2H]C([2H])([2H])NC(=O)c1cnc(NC(=O)C2CC2)cc1Nc1cccc(-c2nc(CN3CCOCC3)no2)c1OC [Example 125]
  IC50: 60 nM

## [2H]C([2H])([2H])NC(=O)c1nnc(NC(=O)C2CC2)cc1Nc1cccc(-c2nc(CN3CCNCC3)no2)c1OC [Example 126]
  IC50: 630 nM

## [2H]C([2H])([2H])NC(=O)c1nnc(NC(=O)C2CC2)cc1Nc1cccc(-c2nc(CN3CCN(C(=O)COC)CC3)no2)c1OC [Example 127]
  IC50: 260 nM

## [2H]C([2H])([2H])NC(=O)c1nnc(NC(=O)C2CC2)cc1Nc1cccc(-c2nc(CN3CCN(S(C)(=O)=O)CC3)no2)c1OC [Example 128]
  IC50: 30 nM

## [2H]C([2H])([2H])NC(=O)c1nnc(NC(=O)C2CC2)cc1Nc1cccc(-c2nc(CN3CCN(C(=O)C=C)CC3)no2)c1OC [Example 129]
  IC50: 260 nM

## [2H]C([2H])([2H])NC(=O)c1nnc(NC(=O)C2CC2)cc1Nc1cccc(-c2nc(CN3CCN(C(=O)c4ccccn4)CC3)no2)c1OC [Example 130]
  IC50: 490 nM

## [2H]C([2H])([2H])NC(=O)c1nnc(NC(=O)C2CC2)cc1Nc1cccc(-c2nc(CN3CCN(C(=O)c4cccnc4)CC3)no2)c1OC [Example 131]
  IC50: 740 nM

## [2H]C([2H])([2H])NC(=O)c1nnc(NC(=O)C2CC2)cc1Nc1cccc(-c2nc(CN3CCN(C(=O)C4CC4)CC3)no2)c1OC [Example 132]
  IC50: 300 nM

## [2H]C([2H])([2H])NC(=O)c1nnc(NC(=O)C2CC2)cc1Nc1cccc(-c2nc(CN3CCN(C(=O)C4(C#N)CC4)CC3)no2)c1OC [Example 133]
  IC50: 100 nM

## [2H]C([2H])([2H])NC(=O)c1nnc(NC(=O)C2CC2)cc1Nc1cccc(-c2nc(CN3CCN(C(=O)CC#N)CC3)no2)c1OC [Example 134]
  IC50: 110 nM
